The source of these data is patent US20090318456A1, “SUBSTITUTED PTERIDINES FOR THE TREATMENT AND PREVENTION OF VIRAL INFECTIONS” (Gilead Sciences, Inc., priority 2006, published 2009).

Structures are written as SMILES. Like-named read-outs stand apart in the source and are kept apart here.

The target in one data set is HCV replicon. Briefly: Anti-HCV replicon assay (EC50, luciferase). The data set is classed as cell-based, Hepatitis C virus (HCV). The settings on record: Huh-7 HCV replicon cells, 3 days, luciferase, read-out: EC50. Here is the method:
(§1) The anti HCV activity of specifically 2,4,6-trisubstituted pteridine derivatives was tested in a human hepatoma Huh-7 cell line harbouring a HCV replicon. The assay comprised the following steps:
(§2) Step 1: compound preparation and serial dilution involved the following alternatives, depending upon the water solubility of pteridine derivative being tested: • 1. with respect to water soluble 2,4,6-trisubstituted pteridine derivatives, 500 μL of solution in cell media (DMEM, 10% FBS, P/S, L-Glutamine) was prepared with a concentration that is twice the concentration of the starting final serial dilution concentration. 150 μL of the solution was added to the pre-specified wells in column 1 of a 96-well cell culture plate (PerkinElmer, white plate, cat. #6005181, for EC50 assay; black plate, cat. #6005182 for CC50 assay). The rest of the plate, i.e. columns 2-12, was filled with 100 μL of cell media. The plate was then placed on a Precision 2000 Workstation in order to start serial dilution. Pteridine compounds were diluted three times each step from column 1 to column 10. Column 11 was used as a blank control (no pteridine compound added). • 2. With respect to poorly water soluble pteridine derivatives, DMSO was used as a solvent, and serial dilution was performed in 50% DMSO in water, in a 384-well plate. A solution containing the relevant compound at 100-fold the concentration of the starting final serial dilution concentration was prepared in 50% DMSO in water and added to the pre-specified wells in column 1 of a polypropylene 384-well plate. This plate was then placed on a Precision 2000 Workstation in order to start serial dilution. After serial dilution, 2 μL of the solution was transferred from the 384-well plate to a 96-well cell culture plate containing 100 μL of cell media on a Biomek FX Workstation. The DMSO concentration in the final assay condition was 0.5% after cells have been added to the plate and the total volume in each well was brought to 200 μL. Step 2: to each well of the serial dilution plate prepared in step 1, 100 μL of cell media containing 6000 suspended Huh-7 HCV replicon cells was added with a Multidrop workstation. Plates were incubated for 3 days at 37° C. with 5% CO2. Step 3: detection: • 1) with respect to the EC50 assay, the media in a 96-well cell culture plate was aspirated with a Biotek EL405 plate-washer. A volume of 200 μL of a solution containing a 1:1 mixture of a cell-lysis buffer (commercially available from Promega, Luciferase Cell Culture Lysis 5× Reagent, cat. #E1531) and a luciferase substrate solution (commercially available from Promega, Luciferase Assay, cat. # E4550) was added to each well of the plate with Multidrop. The plate was incubated for 30 minutes at room temperature before the luminescence signal was measured with a TopCount plate-reader. • 2) with respect to the CC50 assay, 100 μL of a pre-mixed CellTiter-Glo (commercially available from Promega, cat. # G7572) solution was added directly to the cell culture in each well of the plate and the luminescence signal was measured with a TopCount plate-reader after 10 minutes of incubation at room temperature.
(§3) Results are expressed by the following data: • the 50% effective concentration (EC50), i.e. the concentration that protects 50% of the cell monolayer from virus-induced cythopathic effect, and • the 50% cytostatic concentration (CC50), i.e. the concentration that results in 50% inhibition of cell growth.
(A replicon is a self-replicating genome or part of one, used to study replication in cells.)

A further data set deals with Huh-7 HCV replicon cells. Nature of the data set: CC50 assay (CellTiter-Glo) in Huh-7 HCV replicon cells. The data set is classed as cell-based, human. Here is the method:
as §1, §2, §3
For orientation: ATP-based viability assays read luminescence as a measure of living cells.

The next data set relates to HIV IIIb strain. Nature of the data set: Anti-HIV assay in MT-4 cells. The data set is classed as cell-based. The settings on record: MT-4 cells infected with HIV IIIb, 5 days, CellTiter-Glo. Here is the method: The anti HIV activity of some of the pteridine compounds listed in example C was tested in MT-4 cells infected with HIV IIIb strain. The assay comprised the following steps: • Step 1 (sample preparation). The compound stock solutions as prepared for Example C were diluted in MT4 cell media at a concentration equal to twice the concentration of the HCV EC50 or CC50 (the highest concentration of the two was chosen) obtained in Example C. To pre-defined wells of a 384-well black cell culture plate (NUNC), a volume of 50 μL of the compound solution is added. Serial dilution is performed by the workstation across the plate. Each compound is serially diluted 5-fold in each step, for a total of 6 steps (7 total concentrations). Compounds are tested in triplicates within each plate. Negative control was performed using 40 μL cell media only. At the end of the serial dilution, each well on the plate contained 40 μL of media containing different concentrations of compounds. A volume of 20 μL was transferred to a new plate to duplicate the plate. • step 2 (starting the assay): the plates are transferred into the HIV laboratory. To each plate, a volume of 20 μL MT-4 cell suspension (10^5 cells/mL) is dispensed into each well of the plate with the Multidrop dispenser. The HIV IIIb stock solution was diluted 1 to 500 in cell media (2 μL of virus+998 μL of media). 100-120 μL of diluted virus was then added to 10 ml cell suspension (containing 106 MT-4 cells). 20 μL of this cell suspension/virus was dispensed to each well of the plates with the Multidrop dispenser. The plates were incubated at 37° C. for 5 days in the cell culture incubator in the HIV laboratory. • step 3 (detection): on day 5, 40 μL of the pre-prepared CellTiter-Glo reagent was added to each well of the plates using the Multidrop dispenser. The plates were incubated at room temperature for 10 minutes to stabilize the luminescence signal. The luminescence was measured on the Victor 2 plate reader with an integration time of 0.25-1 seconds per sample. […] It is clear from the table that none of the pteridine compounds tested is active against HIV.

The term EC50 denotes the concentration giving half of the maximal effect. One may read the CC50 as the concentration giving 50% cytotoxicity. With `CCOc1nc(N)nc2ncc(-c3ccc(OC)c(OC)c3)nc12` [Example 134], the concentration for a half-maximal effect (EC50) on HCV replicon (Table 2) was < 0.3 µM; in the data set on HIV IIIb strain, > 100 µM. For the same compound, the cytotoxic concentration (CC50) with Huh-7 HCV replicon cells (Table 2, 3 days) was > 20 µM.
The like results for `COc1ccc(-c2cnc3nc(N)nc(N4CCOCC4)c3n2)cc1OC` [Example 158] were, in that order, < 0.3 µM, > 100 µM and 10 to 20 µM.
The like results for `COc1ccc(-c2cnc3nc(N)nc(N4CCN(C)CC4)c3n2)cc1OC` [Example 181] were, in that order, < 0.3 µM, > 100 µM and 10 to 20 µM.
Regarding `CCS(=O)(=O)Nc1cccc(-c2cnc3nc(N)nc(N4CCOCC4)c3n2)c1` [Example 201], the EC50 on HCV replicon (Table 3) is 0.3 to 1 µM; in the data set with HIV IIIb strain, 17.8 µM. Besides, in the data set on Huh-7 HCV replicon cells (Table 3, 3 days), the CC50 is > 20 µM.
The like results for `CCC(=O)Nc1ccc(-c2cnc3nc(N)nc(N4CCOCC4)c3n2)cc1` [Example 216] were, in that order, 0.3 to 1 µM, > 100 µM and > 20 µM.
